Measured values as given in paper PMC6798376, “Production of galactitol from galactose by the oleaginous yeast Rhodosporidium toruloides IFO0880” (Biotechnology for Biofuels, 2019).

Legend:
[1] = molecular target: T1, AldR (aldose reductase; also printed AdhR) (Rhodotorula toruloides, UniProt A0A2S9ZVX5); assay: spectrophotometric NADPH assay at […] nm; format: biochemical; settings: 10 mM galactose as co-substrate; 20 mM Tris-HCl pH 7.0; 25 °C
[2] = molecular target: T1, AldR (aldose reductase; also printed AdhR); assay: spectrophotometric NADPH assay at […] nm; product galactitol by HPLC; format: biochemical; settings: NADPH as coenzyme; 10 mM galactose; 20 mM Tris-HCl pH 7.0; 25 °C

T1 sequence (A0A2S9ZVX5 entry or part of it): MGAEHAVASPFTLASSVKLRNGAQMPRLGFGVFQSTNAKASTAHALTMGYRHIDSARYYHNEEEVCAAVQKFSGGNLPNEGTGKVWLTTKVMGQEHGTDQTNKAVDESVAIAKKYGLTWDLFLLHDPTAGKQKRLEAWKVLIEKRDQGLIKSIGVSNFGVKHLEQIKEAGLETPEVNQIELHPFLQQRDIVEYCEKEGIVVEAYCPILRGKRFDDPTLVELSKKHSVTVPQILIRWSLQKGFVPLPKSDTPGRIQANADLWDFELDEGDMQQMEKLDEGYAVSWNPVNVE

| SMILES | spectrophotometric NADPH assay at 340 nm [1] | spectrophotometric NADPH assay at 340 nm; product galactitol by HPLC [2] |
| --- | --- | --- |
| NC(=O)C1=CN([C@@H]2O[C@H](COP(=O)(O)OP(=O)(O)OC[C@H]3O[C@@H](n4cnc5c(N)ncnc54)[C@H](OP(=O)(O)O)[C@@H]3O)[C@@H](O)[C@H]2O)C=CC1 [NADPH] | AldR is an NADPH-dependent enzyme, like other galactose reductases |  |
| OC[C@H]1OC(O)[C@H](O)[C@@H](O)[C@H]1O (some centres unmarked) [galactose] |  | The recombinant enzyme exhibited activity against galactose with NADPH as the coenzyme |
